According to ChEMBL document CHEMBL1123068, “2-Fluoroformycin and 2-aminoformycin. Synthesis and biological activity” (J Med Chem, 1985):

test: Ratio of kinetic parameters Vmax to the of Km.

**Q.** Which Ratio does the source give for `Nc1nc(N)c2ncn([C@@H]3O[C@H](CO)[C@@H](O)[C@H]3O)c2n1` here?
**A.** The Ratio was 3.6.

**Q.** With `Nc1nc(F)nc2c1ncn2[C@@H]1O[C@H](CO)[C@@H](O)[C@@H]1O` as the compound, how does the Ratio read?
**A.** Its Ratio is 0.0096.

**Q.** For `Nc1ncnc2c1ncn2[C@@H]1O[C@H](CO)[C@@H](O)[C@H]1O`, which Ratio is on record?
**A.** The Ratio was 15.
